Results on two molecules are retold here after article PMC5985439, “Multiple Resistance Evolution in Bipyridylium-Resistant Epilobium ciliatum After Recurrent Selection” (Frontiers in Plant Science, 2018).

What all share (type): biochemical, Epilobium ciliatum
In assay [1] the target is T1, glutamine synthetase (GS), R1 biotype.
T1 construct: gene GS1; native isoenzymes in crude leaf protein extract (rosette stage); isoforms not resolved; described as glufosinate-sensitive
Put plainly: GS activity, crude leaf protein extract. As to conditions: read-out: I50.

Assay [2] deals with T2, glutamine synthetase (GS), R2 biotype.
T2 construct: gene GS1; native isoenzymes in crude leaf protein extract (rosette stage)
The assay is described as follows: GS activity, crude leaf protein extract. As to conditions: stated gain, read-out: I50.

Assay [3] has as its target T3, glutamine synthetase (GS), S biotype.
T3 construct: gene GS1; native isoenzymes in crude leaf protein extract (rosette stage); isoforms not resolved
The assay is described as follows: GS activity, crude leaf protein extract. As to conditions: read-out: I50.

For assay [4], the system named is T4, acetolactate synthase (ALS), S biotype.
T4 construct: native enzyme in de-salted crude extract of young leaves
The assay is described as follows: ALS activity, colorimetric acetoin at […] nm, de-salted leaf extract. As to conditions: read-out: I50.

Turning to `CP(=O)(O)CCC(N)C(=O)O` (stereo not shown) [glufosinate], the IC50 stood at 25.8 µM in assay [1], 1250 µM in assay [2] and 18.5 µM in assay [3].

As for `COc1cc(OC)nc(NC(=O)NS(=O)(=O)c2ncccc2C(F)(F)F)n1` [flazasulfuron], the IC50 in assay [4] worked out at 30.9 µM.
